# Read-outs that look alike come from different tables or passages of the source. Where a SMILES comes first, the peptide text is derived from it. Where no end group is shown, it is not given here. The star is where a group is joined. Benzoyl(4-F) = O=C(c1ccc(F)cc1)*
# Experiments:
# [1] = system: αvβ6-negative DX3puro control cell line; test: Cell binding and internalization of radiotracers, DX3puro control cells; format: cell-based, human
# [2] = system: BxPC-3 tumors (endogenous αvβ6-expression); conditions: 1 h; blocking with 30 mg/kg FBA-PEG28-A20FMDV2 at T=−10 min
# Method: (PBS) or 37° C. (serum), followed by analysis on radio HPLC. Data are expressed as % probe remaining intact in sample. […] Tumor models—DX3puroβ6/DX3puro: Human melanoma cell line. DX3puroβ6 has been stably transfected to express integrin αvβ6. DX3puro is negative control cell line. […] BxPC-3: Pancreatic cell line with endogenous αvβ6-expression. MIA PaCa-2: Pancreatic cell line, no αvβ6-expression.
# [3] = system: BxPC-3 cells (endogenous αvβ6(+)-expression); conditions: 60 min incubation
# [4] = system: integrin αvβ6-expressing DX3puroβ6 cell line; test: Cell binding and internalization of radiotracers, DX3puroβ6 cells; format: cell-based, human; conditions: for Affinity and selectivity for the αvβ6(+)-expressing cell line DX3puroβ6, in words: cell binding vs DX3puro control
# [5] = biological target: T1, αvβ6 integrin (Homo sapiens, UniProt P06756+P18564); test: Competitive binding ELISA of [19F]FBA peptides for integrin αvβ6
# T1 construct: purchased R&D systems (Minneapolis, Minn.)
# T1 sequence (P06756 31-889 limits assumed): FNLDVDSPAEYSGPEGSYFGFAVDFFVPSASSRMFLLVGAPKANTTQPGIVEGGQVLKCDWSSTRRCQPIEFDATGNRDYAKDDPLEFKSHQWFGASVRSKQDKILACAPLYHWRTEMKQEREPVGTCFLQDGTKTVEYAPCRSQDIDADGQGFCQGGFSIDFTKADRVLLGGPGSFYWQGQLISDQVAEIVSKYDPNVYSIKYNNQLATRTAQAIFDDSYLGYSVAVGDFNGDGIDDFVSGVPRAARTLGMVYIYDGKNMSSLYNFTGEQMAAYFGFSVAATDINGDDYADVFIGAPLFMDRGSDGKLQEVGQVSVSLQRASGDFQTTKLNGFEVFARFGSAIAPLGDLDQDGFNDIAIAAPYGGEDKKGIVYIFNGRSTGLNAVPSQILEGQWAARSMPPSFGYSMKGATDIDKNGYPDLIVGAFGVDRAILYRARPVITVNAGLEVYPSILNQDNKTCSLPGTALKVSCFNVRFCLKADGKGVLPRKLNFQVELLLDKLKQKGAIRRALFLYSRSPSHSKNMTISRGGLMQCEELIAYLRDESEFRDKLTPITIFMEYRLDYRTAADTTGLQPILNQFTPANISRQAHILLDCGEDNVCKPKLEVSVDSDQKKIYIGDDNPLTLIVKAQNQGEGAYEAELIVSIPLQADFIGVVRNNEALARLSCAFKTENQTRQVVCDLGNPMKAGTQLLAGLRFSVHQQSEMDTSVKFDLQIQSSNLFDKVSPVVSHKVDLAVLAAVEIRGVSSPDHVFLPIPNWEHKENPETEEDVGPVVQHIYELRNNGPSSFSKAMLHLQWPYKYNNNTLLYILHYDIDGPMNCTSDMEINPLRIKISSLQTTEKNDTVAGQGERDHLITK
# T1 sequence (P06756 891-992 limits assumed): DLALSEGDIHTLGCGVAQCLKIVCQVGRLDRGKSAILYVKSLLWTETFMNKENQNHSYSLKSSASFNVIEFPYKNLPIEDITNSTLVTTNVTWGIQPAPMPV
# T1 sequence (P18564 22-707 limits assumed): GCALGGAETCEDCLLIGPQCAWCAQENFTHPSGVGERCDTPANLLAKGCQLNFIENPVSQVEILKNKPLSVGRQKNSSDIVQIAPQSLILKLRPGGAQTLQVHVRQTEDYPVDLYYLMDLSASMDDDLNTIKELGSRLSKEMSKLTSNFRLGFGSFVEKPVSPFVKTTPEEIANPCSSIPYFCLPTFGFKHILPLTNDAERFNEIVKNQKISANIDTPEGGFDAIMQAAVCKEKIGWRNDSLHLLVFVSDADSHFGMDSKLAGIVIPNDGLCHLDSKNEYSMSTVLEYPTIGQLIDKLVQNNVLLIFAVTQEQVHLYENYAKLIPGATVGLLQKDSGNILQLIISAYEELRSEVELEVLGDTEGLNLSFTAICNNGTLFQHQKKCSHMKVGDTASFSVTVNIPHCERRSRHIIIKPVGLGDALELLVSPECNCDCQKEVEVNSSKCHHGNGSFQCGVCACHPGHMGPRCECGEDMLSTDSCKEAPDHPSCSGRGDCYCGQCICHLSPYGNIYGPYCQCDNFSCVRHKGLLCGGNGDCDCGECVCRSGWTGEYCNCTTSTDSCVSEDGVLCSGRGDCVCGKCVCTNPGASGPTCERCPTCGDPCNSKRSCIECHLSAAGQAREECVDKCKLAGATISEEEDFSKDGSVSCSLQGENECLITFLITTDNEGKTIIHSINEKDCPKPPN
# Method: Affinity of each peptide was assessed ELISA on Nunc Maxisorp Flat-bottom 96 well plates (affymetrix ebioscience, San Diego, Calif.). Integrin alpha V antibody P2W7 was purchased from Novus Biologicals (Littleton, Colo.). Bovine serum albumin (BSA) was purchased from VWR (Randor, Pa.) and TMB one solution was purchased from Promega (Madison, Wis.). αvβ6 integrin was purchased from R&D systems (Minneapolis, Minn.). Protein biotinylation kit was purchased from Amersham plc (Amersham, UK) while competing natural ligand fibronectin was purchased from Invitrogen (Carlsbad, Calif.). Affinity was measured in absorbance units by the Thermo Multiscan Plate reader with associated Ascent Software (Thermofisher, Waltham, Mass.).
# The peptides were allowed to compete for 1 h with biotinylated fibronectin, a natural ligand for αvβ6; or biotinylated vitronectin, when competing against αvβ3. Briefly, a 96-well plate was coated with 50 μL/well of 5 μg/mL P2W7 in phosphate buffered saline (PBS) at 37° C. for 1 h. The plate was washed three times with PBS followed by treatment with PBS containing 5% bovine serum albumin (BSA; fraction V; w/v) and 1% Tween 20 (v/v) at 4° C. for 16 h to block nonspecific binding. The plate was washed with PBS and coated with 50 μL/well integrin in wash buffer (WaB) for 1 h and then washed three times with WaB. WaB consisted of a solution of 2 mmol/L Tris buffer (pH 7.6), 150 mmol/L sodium chloride, 1 mmol/L manganese chloride, and 0.1% Tween 20 (v/v) in deionized water. Triplicate wells were coated with 50 μL/well of a mixture of equal volumes of biotinylated fibronectin (BtFn) for αvβ6, or biotinylated vitronectin (BtVn) for αvβ3, in conjugate buffer, consisting of 1% BSA (fraction V; w/v) in WaB, and a serial dilution of peptide stock (2 mmol/L; 10% DMSO (v/v) in water) from 1 μM to 1 pM. Wells containing no peptide, no peptide and no antibody, or no peptide and no ligand served as controls. The plate was incubated for 1 h at room temperature and washed three times with WaB before ExtrAvidin-horseradish peroxidase conjugate was added (50 μL/well, 1:1,000 dilution in conjugate buffer) at room temperature for 1 h. After washing with WaB, bound BtFn or BtVn was detected by addition of TMB (50 μL/well) and incubation for 10 to 15 min. The reaction was terminated by adding 50 μL/well […] sulfuric acid and absorbance was measured at 450 nm (yellow color of acidified oxidized TMB, indicating fibronectin binding). Calculations of IC50 values are based on data analysis with Prism software (GraphPad Software).
molecule,measurement,setting,value
18F-FBA-PEG28-A20FMDV2-PEG28 [compound 5],Binding to DX3puro control cells,[1]; 60 min incubation,3.5±0.2%
same,Internalization into DX3puro control cells,[1]; 60 min incubation,0.9±0.1%
same,Reduction of BxPC-3 tumor uptake vs unblocked,[2],92%
same,Binding to BxPC-3 cells (fraction of total radioactivity),[3],37.2±1.9%
same,Internalization into BxPC-3 cells (of total radioactivity),[3],28.4±0.9%
same,Binding to DX3puroβ6 cells (fraction of total radioactivity),[4]; 60 min incubation,51.0±0.9%
same,Internalization into DX3puroβ6 cells (of total radioactivity),[4]; 60 min incubation,33.5±1.8%
"c(RSDLTPLFE)K([^19F]FBA)-NH2 (RSDLTPLFEK((19F)FBA)-NH2; bridge (positions not given here); also: residues 1-9 cyclized, mode not given here)",IC50,"[5]; ELISA, calculated by PRISM, read-out: IC50 against αvβ6",> 300 nM
CC(C)C[C@H](NC(=O)[C@H](CC(=O)O)NC(=O)CNC(=O)[C@H](CCCNC(=N)N)NC(=O)[C@H](CC(C)C)NC(=O)[C@H](CC(N)=O)NC(=O)[C@@H]1CCCN1C(=O)[C@@H](NC(=O)[C@H](C)NC(=O)[C@H](CC(N)=O)NC(=O)CCOCCOCCOCCOCCOCCOCCOCCOCCOCCOCCOCCOCCOCCOCCOCCOCCOCCOCCOCCOCCOCCOCCOCCOCCOCCOCCOCCOCCNC(=O)c1ccc(F)cc1)C(C)C)C(=O)N[C@@H](CCC(N)=O)C(=O)N[C@H](C(=O)N[C@@H](CC(C)C)C(=O)N[C@@H](C)C(=O)N[C@@H](CCC(N)=O)C(=O)N[C@@H](CCCCN)C(=O)N[C@H](C(=O)N[C@@H](C)C(=O)N[C@@H](CCCNC(=N)N)C(=O)N[C@H](C(=O)NCCOCCOCCOCCOCCOCCOCCOCCOCCOCCOCCOCCOCCOCCOCCOCCOCCOCCOCCOCCOCCOCCOCCOCCOCCOCCOCCOCCOCCC(N)=O)[C@@H](C)O)C(C)C)C(C)C [PEGylated A20FMDV2 not bearing K(IPA)E],"Binding and internalization in DX3puro control, in words",[1],low
same,Binding to DX3puroβ6 cells (fraction of total radioactivity),[4]; 60 min incubation,52%
same,"Internalized share of bound radioactivity, DX3puroβ6 cells",[4]; of bound radioactivity,44%
D(KLAKLAK)2-GG-PEG28-A20FMDV2-K,"Affinity and selectivity for the αvβ6(+)-expressing cell line DX3puroβ6, in words",[4],"does not affect its affinity, specificity, and internalization-potential"
PEG28-A20FMDV2-GG-D(KLAKLAK)2-K,"Affinity and selectivity for the αvβ6(+)-expressing cell line DX3puroβ6, in words",[4],"does not affect its affinity, specificity, and internalization-potential"
CC(C)C[C@H](NC(=O)[C@H](CC(=O)O)NC(=O)[C@H](CO)NC(=O)[C@H](CCCNC(=N)N)NC(=O)c1ccc(F)cc1)C(=O)N[C@H](C(=O)N1CCC[C@H]1C(=O)N[C@@H](CC(C)C)C(=O)N[C@@H](Cc1ccccc1)C(N)=O)[C@@H](C)O ({Benzoyl(4-F)}-RSDLTPLF-NH2),IC50,[5],7 nM
PEG28-A20FMDV2(K16R)-PEG28,Internalization in αvβ6 cells,"[4]; 1 h, basis not given",> 50%
same,Binding to DX3puroβ6 cells (fraction of total radioactivity),[4]; 60 min incubation,> 70%
CC(C)C[C@H](NC(=O)[C@H](CC(=O)O)NC(=O)[C@H](CO)NC(=O)[C@@H](N)CCCNC(=N)N)C(=O)N[C@H](C(=O)N1CCC[C@H]1C(=O)N[C@@H](CC(C)C)C(=O)N[C@@H](Cc1ccccc1)C(N)=O)[C@@H](C)O (H-RSDLTPLF-NH2),IC50,[5],7 nM
same,Selectivity for αvβ6 over αvβ3,[5],100 times

# — patent US11485758B2, “Bi-terminal pegylated integrin-binding peptides and methods of use thereof” (The Regents of the University of California, priority 2014, dated 2022)
